This is an account of results in BindingDB's records for doi:10.1021/acs.biochem.6b01308 (Johns Hopkins University, 2017).

The target of assay [1] is T1, Iodotyrosine deiodinase [1-228] (Haliscomenobacter hydrossis, UniProt F4KU78).
T1 construct: 1-228
T1 sequence (F4KU78 whole entry): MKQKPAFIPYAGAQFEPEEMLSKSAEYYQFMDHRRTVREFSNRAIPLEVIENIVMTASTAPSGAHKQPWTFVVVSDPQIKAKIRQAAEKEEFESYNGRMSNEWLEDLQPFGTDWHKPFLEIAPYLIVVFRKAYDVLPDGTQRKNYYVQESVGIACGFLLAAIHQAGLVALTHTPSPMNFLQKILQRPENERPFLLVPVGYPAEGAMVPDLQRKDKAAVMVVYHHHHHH
Nature of the assay: IYD Binding Assay. How it is done: (§1) Dissociation constants (Kd) for the ligands of IYD were determined by their ability to quench the fluorescence of the oxidized FMN (FMNox) (λex 450 nm, λem 523 nm) in the active site of IYD as previously described [Hu et al., J. Biol. Chem., 290:590-600; McTamney et al., J. Am. Chem. Soc., 131:14212-14213].

Assay [2] concerns the target T2, Iodotyrosine deiodinase 1 [1-1,32-289] (Homo sapiens, UniProt Q6PHW0).
T2 construct: 1-1,32-289
T2 sequence (Q6PHW0 whole entry): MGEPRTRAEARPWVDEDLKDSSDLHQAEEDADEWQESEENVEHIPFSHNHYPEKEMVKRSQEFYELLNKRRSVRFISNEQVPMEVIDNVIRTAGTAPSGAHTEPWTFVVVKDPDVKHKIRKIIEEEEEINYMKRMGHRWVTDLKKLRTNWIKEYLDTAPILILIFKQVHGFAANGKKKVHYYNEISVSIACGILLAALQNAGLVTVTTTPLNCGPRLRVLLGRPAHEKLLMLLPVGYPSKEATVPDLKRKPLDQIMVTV
Nature of the assay: IYD Binding Assay. How it is done: as §1

Consider `N[C@@H](Cc1ccc(O)c(I)c1)C(=O)O`, for which the Kd is 8.2 µM in assay [1] and 0.09 µM in assay [2].

As to `Oc1ccccc1I` [2-Iodophenol (2IP)], the values for the dissociation constant Kd in assay [1] and in assay [2] were 67 µM and 1410 µM, respectively.

In assay [1], `Nc1ccc(O)c(I)c1` [4-Amino-2-iodophenol (4A2IP)] had a Kd of 96 µM.

Regarding `N#Cc1ccc(O)c(I)c1` [4-Cyano-2-iodophenol (2IPCN)], in assay [1], the Kd was 1.44 µM.

`O=C(O)c1ccc(O)c(I)c1` [4-Hydroxy-3-iodobenzoic acid (2IPCOOH)] gave a Kd in assay [1] of 24.1 µM. This Kd is about 17-fold higher than that of the compound before.
